In US7659271B2, “Pyrimidine compound having dibenzylamine structure and medicament comprising the same” (Kowa Company, Ltd., priority 2007, dated 2010):

Target: T1, CETP (Homo sapiens, UniProt P11597)
T1 construct: The CETP activity in this plasma was measured with Cholesteryl Ester Transfer Protein Activity kit; from tissue; host or cells: human plasma
T1 sequence (P11597 18-493): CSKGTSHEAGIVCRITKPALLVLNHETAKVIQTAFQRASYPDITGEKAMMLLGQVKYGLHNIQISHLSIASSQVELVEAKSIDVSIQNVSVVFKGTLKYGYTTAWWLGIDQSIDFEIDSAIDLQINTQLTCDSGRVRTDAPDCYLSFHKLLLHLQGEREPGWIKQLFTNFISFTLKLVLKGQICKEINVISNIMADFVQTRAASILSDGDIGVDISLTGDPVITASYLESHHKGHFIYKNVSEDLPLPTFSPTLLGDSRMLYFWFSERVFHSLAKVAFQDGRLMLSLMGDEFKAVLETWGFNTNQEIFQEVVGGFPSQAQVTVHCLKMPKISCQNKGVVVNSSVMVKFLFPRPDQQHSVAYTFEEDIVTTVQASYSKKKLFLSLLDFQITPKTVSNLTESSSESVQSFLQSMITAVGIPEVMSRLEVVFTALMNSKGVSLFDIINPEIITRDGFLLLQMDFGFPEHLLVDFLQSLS
Test: Measurement of CETP inhibitory action in human plasma
Type: biochemical
Conditions: incubated with compound 37° C. 4 hours, Roar Biomedical CETP Activity kit, read-out: IC50 (concentration inhibiting the CETP activity by 50%)
Method: A solution obtained by dissolving an exemplary compound in polyethylene glycol/N-methyl-2-pyrrolidone (vol/vol=1/1) was added to human plasma, and the mixture was incubated in an incubator at 37° C. for 4 hours. The CETP activity in this plasma was measured with Cholesteryl Ester Transfer Protein Activity kit (Roar Biomedical, catalog No.: RB-CETP). Specifically, to each well of a 96-well plate, 95 μL of a buffer (10 mM Tris, 150 mM NaCl, 2 mM EDTA, pH 7.4), 2 μL of Donor particle and 2 μL of Acceptor particle were added, 1 μL of the human plasma after the incubation was added to the mixture, and the mixture was incubated in an incubator at 37° C. for 2 hours. After completion of the incubation, fluorescence intensity (FLU) was measured with a fluorescence plate reader (excitation wavelength: 465 nm, emission wavelength: 535 nm). In accordance with the following equation 1, the CETP activity (% of control) was obtained for the compounds of the examples for two or more concentrations. CETP activity (% of control)=(Sample FLU−Blank FLU)×100/(Control FLU−Blank FLU) (Equation 1)
In the equation, the terms have the following meanings: […]
Blank FLU: Fluorescence intensity of sample not added with plasma
Control FLU: Fluorescence intensity of plasma not added with solution of compound
Sample FLU: Fluorescence intensity of plasma added with solution of compound
A value obtained by subtracting the value of the CETP activity from 100 was defined as the CETP inhibitory rate of each exemplary compound, and a concentration inhibiting the CETP activity by 50% (IC50) was calculated for each exemplary compound from the values of the CETP inhibitory rate at two or more concentrations.

IC50	SMILES
40 nM	CCN(CC1CCCC1)c1ccc(C(F)(F)F)cc1CN(c1ncc(OCC[S+](C)[O-])cn1)C(C)c1cc(C(F)(F)F)cc(C(F)(F)F)c1 (centres unmarked) [Example 2, N-{1-[3,5-bis(trifluoromethyl)phenyl]ethyl}-N-({2-[(cyclopentylmethyl)(ethyl)amino]-5-(trifluoromethyl)phenyl}methyl)-5-[2-(methylsulfinyl)ethoxy]pyrimidin-2-amine]
50 nM	CCN(CC1CCCC1)c1ccc(OC)cc1CN(c1ncc(OCCS(C)(=O)=O)cn1)C(C)c1cc(C(F)(F)F)cc(C(F)(F)F)c1 (centres unmarked) [Example 5, N-{1-[3,5-bis(trifluoromethyl)phenyl]ethyl}-N-({2-[(cyclopentylmethyl)(ethyl)amino]-5-methoxyphenyl}methyl)-5-[2-(methylsulfonyl)ethoxy]pyrimidin-2-amine]
300 nM	CCN(CC1CCCC1)c1c(F)cc(F)cc1CN(c1ncc(OCCS(C)(=O)=O)cn1)C(C)c1cc(C(F)(F)F)cc(C(F)(F)F)c1 (centres unmarked) [Example 7, N-{1-[3,5-bis(trifluoromethyl)phenyl]ethyl}-N-({2-[(cyclopentylmethyl)(ethyl)amino]-3,5-difluorophenyl}methyl)-5-[2-(methylsulfonyl)ethoxy]pyrimidin-2-amine]
70 nM	CCN(CC1CCCC1)c1ccc(C)cc1CN(c1ncc(OCCS(C)(=O)=O)cn1)C(C)c1cc(C(F)(F)F)cc(C(F)(F)F)c1 (centres unmarked) [Example 9, N-{1-[3,5-bis(trifluoromethyl)phenyl]ethyl}-N-({2-[(cyclopentylmethyl)(ethyl)amino]-5-methylphenyl}methyl)-5-[2-(methylsulfonyl)ethoxy]pyrimidin-2-amine]
250 nM	CCN(CC1CCCC1)c1cc(F)ccc1CN(c1ncc(OCCS(C)(=O)=O)cn1)C(C)c1cc(C(F)(F)F)cc(C(F)(F)F)c1 (centres unmarked) [Example 11, N-{1-[3,5-bis(trifluoromethyl)phenyl]ethyl}-N-({2-[(cyclopentylmethyl)(ethyl)amino]-4-fluorophenyl}methyl)-5-[2-(methylsulfonyl)ethoxy]pyrimidin-2-amine]
100 nM	CCN(CC1CCCC1)c1cc(OC)ccc1CN(c1ncc(OCCS(C)(=O)=O)cn1)C(C)c1cc(C(F)(F)F)cc(C(F)(F)F)c1 (centres unmarked) [Example 13, N-{1-[3,5-bis(trifluoromethyl)phenyl]ethyl}-N-({2-[(cyclopentylmethyl)(ethyl)amino]-4-methoxyphenyl}methyl)-5-[2-(methylsulfonyl)ethoxy]pyrimidin-2-amine]
300 nM	CCN(CC1CCCC1)c1cc(C(F)(F)F)ccc1CN(c1ncc(OCC[S+](C)[O-])cn1)C(C)c1cc(C(F)(F)F)cc(C(F)(F)F)c1 (centres unmarked) [Example 15, N-{1-[3,5-bis(trifluoromethyl)phenyl]ethyl}-N-({2-[(cyclopentylmethyl)(ethyl)amino]-4-(trifluoromethyl)phenyl}methyl)-5-[2-(methylsulfinyl)ethoxy]pyrimidin-2-amine]
150 nM	CCN(CC1CCCC1)c1cc(C(F)(F)F)ccc1CN(c1ncc(OCCS(C)(=O)=O)cn1)C(C)c1cc(C(F)(F)F)cc(C(F)(F)F)c1 (centres unmarked) [Example 16, N-{1-[3,5-bis(trifluoromethyl)phenyl]ethyl}-N-({2-[(cyclopentylmethyl)(ethyl)amino]-4-(trifluoromethyl)phenyl}methyl)-5-[2-(methylsulfonyl)ethoxy]pyrimidin-2-amine]
800 nM	CCN(CC1CCCC1)c1ccccc1CN(c1ncc(OCCS(C)(=O)=O)cn1)C(C)c1cc(C(F)(F)F)cc(C(F)(F)F)c1 (centres unmarked) [Example 20, N-{1-[3,5-bis(trifluoromethyl)phenyl]ethyl}-N-({2-[(cyclopentylmethyl)(ethyl)amino]phenyl}methyl)-5-[2-(methylsulfonyl)ethoxy]pyrimidin-2-amine]
500 nM	CCN(CC1CCCC1)c1cc(F)c(F)cc1CN(c1ncc(OCCS(C)(=O)=O)cn1)C(C)c1cc(C(F)(F)F)cc(C(F)(F)F)c1 (centres unmarked) [Example 22, N-{1-[3,5-bis(trifluoromethyl)phenyl]ethyl}-N-({2-[(cyclopentylmethyl)(ethyl)amino]-4,5-difluorophenyl}methyl)-5-[2-(methylsulfonyl)ethoxy]pyrimidin-2-amine]
300 nM	CCN(CC1CCCC1)c1cc(Cl)ccc1CN(c1ncc(OCCS(C)(=O)=O)cn1)C(C)c1cc(C(F)(F)F)cc(C(F)(F)F)c1 (centres unmarked) [Example 24, N-{1-[3,5-bis(trifluoromethyl)phenyl]ethyl}-N-({4-chloro-2-[(cyclopentylmethyl)(ethyl)amino]phenyl}methyl)-5-[2-(methylsulfonyl)ethoxy]pyrimidin-2-amine]
250 nM	CCN(CC1CCCC1)c1ccc(F)cc1CN(c1ncc(OCCS(C)(=O)=O)cn1)C(C)c1cc(C(F)(F)F)cc(C(F)(F)F)c1 (centres unmarked) [Example 26, N-{1-[3,5-bis(trifluoromethyl)phenyl]ethyl}-N-({2-[(cyclopentylmethyl)(ethyl)amino]-5-fluorophenyl}methyl)-5-[2-(methylsulfonyl)ethoxy]pyrimidin-2-amine]
200 nM	CCN(CC1CCCC1)c1cc(Br)ccc1CN(c1ncc(OCCS(C)(=O)=O)cn1)C(C)c1cc(C(F)(F)F)cc(C(F)(F)F)c1 (centres unmarked) [Example 28, N-{1-[3,5-bis(trifluoromethyl)phenyl]ethyl}-N-({4-bromo-2-[(cyclopentylmethyl)(ethyl)amino]phenyl}methyl)-5-[2-(methylsulfonyl)ethoxy]pyrimidin-2-amine]
45 nM	CCN(CC1CCCC1)c1ccc(Br)cc1CN(c1ncc(OCCS(C)(=O)=O)cn1)C(C)c1cc(C(F)(F)F)cc(C(F)(F)F)c1 (centres unmarked) [Example 30, N-{1-[3,5-bis(trifluoromethyl)phenyl]ethyl}-N-({5-bromo-2-[(cyclopentylmethyl)(ethyl)amino]phenyl}methyl)-5-[2-(methylsulfonyl)ethoxy]pyrimidin-2-amine]
30 nM	CCN(CC1CCCC1)c1ccc(C(F)(F)F)cc1CN(c1ncc(OCCS(C)(=O)=O)cn1)C(C)c1cc(C#N)cc(C(F)(F)F)c1 (centres unmarked) [Example 32, 3-{1-[({2-[(cyclopentylmethyl)(ethyl)amino]-5-trifluoromethylphenyl}methyl){5-[2-(methylsulfonyl)ethoxy]pyrimidin-2-yl}amino]ethyl}-5-(trifluoromethyl)benzonitrile]
120 nM	CCN(C[C@H]1CC[C@H](CC(=O)O)CC1)c1ccc(C(F)(F)F)cc1CN(c1ncc(OCCS(C)(=O)=O)cn1)C(C)c1cc(C(F)(F)F)cc(C(F)(F)F)c1 (stereo partly drawn) [Example 45, trans-{4-[({2-[({1-[3,5-bis(trifluoromethyl)phenyl]ethyl}{5-[2-(methylsulfonyl)ethoxy]pyrimidin-2-yl}amino)methyl]-4-(trifluoromethyl)phenyl}(ethyl)amino)methyl]cyclohexyl}acetic acid]
400 nM	CC(c1cc(C(F)(F)F)cc(C(F)(F)F)c1)N(Cc1cc(F)cc(F)c1N(CC1CC1)CC1CC1)c1ncc(OCCS(C)(=O)=O)cn1 (centres unmarked) [Example 47, N-({2-[bis(cyclopropylmethyl)amino]-3,5-difluorophenyl}methyl)-N-{1-[3,5-bis(trifluoromethyl)phenyl]ethyl}-5-[2-(methylsulfonyl)ethoxy]pyrimidin-2-amine]
